Laboratory results taken from patent publication US20080200405A1, “Drug Resistance Reversal In Neoplastic Disease” (priority 2007, published 2008).
Read-outs that look alike come from different tables or passages of the source.

Assays:
[1] = tested on: bFGF-induced angiogenesis in the CAM model; test: bFGF (FGF2)-stimulated CAM model; format: in vivo, chicken; conditions: bFGF/FGF2 1 ug, 30 ug injected
Experimental: (§1) In vivo neovascularization was examined by the method previously described by Auerbach et al. (J. Dev. Biol. 41:391-394 (1974)). Ten-day old chicken embryos were purchased from Spafas, Inc. (Preston, Conn.) and were incubated at 37° C. with 55% relative humidity. In the dark, with the aid of a candling lamp, a small hole was punctured in the shell concealing the air sac with a hypodermic needle. A second hole was punctured in the shell on the broadside of the egg directly over an […] portion of the embryonic membrane, as observed during candling. An artificial air sac was created beneath the second hole by applying gentle vacuum to the first hole using a small rubber squeeze bulb. The vacuum caused the chorioallantoic membrane (CAM) to separate from the shell.
For inducing angiogenesis, sterile filter disks were saturated with bFGF (1 μg/ml) (Life Technologies, Gaithersburg, Md.) or other pro-angiogenesis factors and control disks were saturated with PBS without Calcium and Magnesium. Control disks were saturated with PBS without Calcium and Magnesium.
After 24-48 hr, 10-25 ul of test agent was injected intravenously or added topically into the CAM membrane. Eight-Ten eggs/treatment group were used.
(§2) The number of vessel branch points contained in a circular region equal to the area of a filter disk was counted for each section. Percent inhibition data are expressed as the quotient of the experimental value minus the negative control value divided by the difference between the positive control value and the negative control value. One image was counted in each CAM preparation, and findings from eight CAM preparations were analyzed for each treatment condition. In addition, each experiment was performed three times. The resulting angiogenesis index is the mean ±SEM (Standard Error of Measurement) of new branch points in each set of treatment. Statistical analysis of blood vessel branching patterns are performed by 1-way analysis of variance (ANOVA) comparing experimental with corresponding control groups. Statistical significance differences are assessed at P value of <0.05.
The CAM model protocol was modified to include stimulus with bFGF. The effect of injected OT 551 was assayed.
TP-H was applied to the CAM model study to determine its respective anti-angiogenesis effects according to the materials and methods provided in Example 1. Basic Fibroblast Growth Factor (bFGF) was used to induce angiogenesis in the CAM model.
Compounds were introduced via injection to the CAM model study to determine its respective anti-angiogenesis effects according to the materials and methods provided in Example 1. bFGF was used to induce angiogenesis in the CAM model.

Lipid peroxidation = Lipid peroxidation inhibition (method of Ohkawa); format: biochemical
TNFα = test: Measurement of LPS Induced-TNFα in THP-1 Cells; format: cell-based, human; conditions: Homo sapiens, THP-1
[2] = tested on: doxorubicin-sensitive and doxorubicin-resistant cells (osteosarcoma, breast cancer, neuroblastoma); test: Evaluation of chemoresistance, Compound 4 alone or combined with doxorubicin; format: cell-based, human
Experimental: A method for evaluating a compound's propensity to overcome cancer cell chemoresistance is described in “Caspase Inhibition Switches Doxorubicin-Induced Apoptosis To Senescence”, Abdelhadi Rebbaa, Xin Zheng, Pauline M Chou and Bernard L Mirkin, Oncogene (2003) 22, 2805-2811. Human neuroblastoma SKN-SH cells (ATCC Cat. No. HTB-11) were cultured in Dulbecco's Modified Eagles Medium (DMEM; Gibco, Grand Island, N.Y.) supplemented with 10% fetal bovine serum (FBS; Sigma-Aldrich, St. Louis, Mo.) at 37° C. in a 95% Air/5% CO2 atmosphere. Resistant human cancer cells to doxorubicin were selected by stepwise exposure to drug concentrations ranging from 10^−9M-10^−6M over 3 months. They were then subjected to treatment with the doxorubicin alone or in combination with hydroxylamine compounds. The cells were incubated with the drugs for 72 hours, and cell viability was measured by the MTT assay. This consists of adding 10 μl/well of MTT (5 mg/ml solution) and incubation for 4 h at 37° C. The precipitate formed is then solubilized by addition of 100 μl of HCL 0.5 N/Isopropanol and incubation for 15 hours at 37° C. The optical density is measured at 570 nm and cell survival is estimated by comparison to untreated cells. Each point represents 4 wells data represent average +/−SE. Additionally, molecular pathways that might be associated with increased chemo-responsiveness with these compounds were investigated.
Cytotoxic activity of doxorubicin and hydroxylamine analogs were quantitatively determined by a colorimetric assay utilizing 3-(4,5-dimethyl-2-thiazolyl) 2,5-diphenyl tetrazolium bromide (MTT; Sigma-Aldrich, St. Louis, Mo.). Briefly, cells were seeded at 10^4 cells/well in 96-well plates and maintained in culture for 24 hours at 37° C. in DMEM supplemented with 10% FBS. […] The optical density of this solution was measured at 570 nm and the percentage of viable cells estimated by comparison with untreated control cells.

[3] = tested on: Human whole blood clot formation; conditions: for Clot Strength - MA / Time to Clot Initiation R: TEG, human whole blood
Experimental: TEG: Human whole blood (±drugs) was added to the cylindrical cuvette (“cup”). […] The cup oscillates 4°45′ ( 1/12 radian) in either direction every 4.5 seconds, with a 1-second mid-cycle stationary period, resulting in a frequency of 0.1 Hz and a maximal shear rate of 0.1 per second. The pin was suspended by a torsion wire that acts as a torque transducer. […] The torque experienced by the pin (relative to the oscillation of the cup) was plotted as a function of time (Forsythe, S. A. M. S. K. M. S. (2000): “Comparative In Vitro Efficacy of Different Platelet Glycoprotein IIb/IIIa Antagonists on Platelet-Mediated Clot Strength Induced by Tissue Factor With Use of Thromboelastography.” Arteriosclerosis, Thrombosis, and Vascular Biology 20: 1162).
(Data represent mean ±SD, n=6 (blood form normal healthy volunteers), *P<0.01 as compared to control)

[4] = tested on: Doxorubicin resistant SaOS2 cells; test: Cancer cell viability (MTT) in the presence or absence of doxorubicin; format: cell-based, human; conditions: compound 50 ug/mL, 3 days
[5] = tested on: selenite induced cataract; test: Selenite induced cataract in mice; conditions: mouse, in vivo
From the text: In addition, as mentioned above, there is no precedent for the prevention of growth factor-induced angiogenesis by either TEMPOL or hydroxylamines.

lens endothelial cells = conditions: in vitro; cited from earlier work
[6] = tested on: H2O2-induced angiogenesis in the CAM model; test: H2O2-induced angiogenesis in the CAM model; format: in vivo, chicken; conditions: for Branch pts ± SEM: H2O2 88 μM, 30 ng
Experimental: as §1
A pro-angiogenic agent was added to induce new blood vessel branches on the CAM of 10-day old embryos. Filter disks of #1 filter paper (Whatman International, United Kingdom) were punched using a small puncher and were soaked in 3 mg/mL cortisone acetate (Sigma, St. Louis, Mo.) in a solution (95% ethanol and water). The disks were subsequently air dried under sterile conditions. The disks were then suspended in PBS (Phosphate Buffered Saline) and placed on growing CAMs. Filters treated with TP-H (TEMPOL-H) or TEMPOL and/or H2O2 or TP-H and/or bFGF or VEGF were placed on the first day of the 3-day incubation.
as §2
TP-H (TEMPOL-H, the hydroxylamine reduced form of the nitroxide 4-hydroxy-2,2,6,6-tetramethylpiperidin-1-yloxy) or TEMPOL (4-hydroxy-2,2,6,6-tetramethylpiperidine-N-oxyl radical) was applied to the CAM model study to determine its respective anti-angiogenesis effects according to the materials and methods provided in Example 1. H2O2 was used to induce angiogensis in the CAM model.

mouse V79 cells = conditions: cited from earlier work
[7] = Bevacizumab 1 ng/cup + Comp. 4 1 uM
[8] = Bevacizumab 1 ng/cup + Comp. 4 10 uM
[9] = Ranibizumab 1 ng/cup + Comp. 4 1 uM
[10] = Ranibizumab 1 ng/cup + Comp. 4 10 uM

CC1(C)CC(Oc2nsnc2N2CCOCC2)CC(C)(C)N1O.Cl [Compound 4, 4-(4-(2,2,6,6-tetramethylpiperidin-1-hydroxyl-4-yloxy)-1,2,5-thiazol-3-yl)morpholine hydrogen chloride]
inhibition in vivo at 0.03 mg ([1]; Gallus gallus, read-out: % Inhibition ± SEM): 92.8 ± 16.5% | Branch pts ± SEM [1]: 72.3 ± 12.2 | % Lipid Peroxidation inhibition (at 1 uM) (Lipid peroxidation; 1 uM): 87.0% | Lipid Peroxidation Inhibition, % Inhibition (Lipid peroxidation; 10 uM): 91.4% | inhibition at 10 µM (TNFα; compound 10 uM, 5 ng/mL LPS, read-out: Mean Percent Inhibition of TNF-alpha using 5 ng/mL LPS): 61 ± 10% | IC50 (TNFα; read-out: TNFalpha IC50): 6.7 µM | underlying mechanism (cell cycle arrest, apoptosis markers) [2]: increased expression of p21/WAF1 and caspase-3 activation | reversal of drug resistance ([2]; combined with doxorubicin, osteosarcoma, breast cancer, neuroblastoma): strong ability to reverse drug resistance | killing of cells, compound alone ([2]; doxorubicin-sensitive and doxorubicin-resistant cells): enhanced the killing of both doxorubicin-sensitive (P<0.001) and doxorubicin-resistant cells | Clot Strength - MA [3, 7]: 9.6 ± 2.3 mm | Time to Clot Initiation R [3, 7]: 14.3 ± 2.2 min | Clot Strength - MA [3, 8]: 5.0 ± 1.2 mm | Time to Clot Initiation R [3, 8]: 21.3 ± 4.2 min | Clot Strength - MA [3, 9]: 6.7 ± 1.5 mm | Time to Clot Initiation R [3, 9]: 16.8 ± 1.7 min | Clot Strength - MA [3, 10]: 2.7 ± 0.7 mm | Time to Clot Initiation R [3, 10]: 23.3 ± 2.3 min | effect on clot formation with Bevacizumab/Ranibizumab ([3]; compound 4 at 1 ug and 10 ug): delayed the clot formation | Mean OD (×10^−3), MTT viability ([4]; Dox. 10^−6 M (+)): 88.00 ×10^−3 | Mean OD (×10^−3), MTT viability ([4]; absence of Dox. (−)): 468.50 ×10^−3

CC1(C)CC(O)CC(C)(C)N1[O] [TEMPOL, 4-hydroxy-2,2,6,6-tetramethylpiperidine-N-oxyl radical, reference compound]
prevention of selenite induced cataract [5]: not effective | prevention of X-ray radiation damage to lens endothelial cells (lens endothelial cells): prevented X-ray radiation damage | Branch pts ± SEM ([6]; 100 μg): 152.2 ± 18.8 | Branch pts ± SEM ([6]; 200 μg): 151.8 ± 12.5 | Branch pts ± SEM ([6]; 400 μg): 150.0 ± 7.7 | Branch pts ± SEM ([6]; 800 μg): 122.8 ± 3.0 | inhibition of angiogenesis induced by super-maximal concentrations of H2O2 ([6]; in vivo): effectively inhibited | radioprotection of mouse V79 cells (mouse V79 cells): concentration dependent
